Results reported in PubChem BioAssay AID1259407 (Chemical Carcinogenesis Research Information System (CCRIS), 2018).
Active and inactive are the calls of the source. How the calls were made is not given here.

Test system: CCRIS mutagenicity, Ames/micronucleus/aberration tests
Experiment: CCRIS mutagenicity studies

With `COc1ccc2[nH]cc(CCNC(C)=O)c2c1` the mutagenic call (Test System: AMES SALMONELLA TYPHIMURIUM, Strain/Indicator: TA97, Metabolic Activation: NONE, Method: STANDARD PLATE) was “inactive; negative”, the mutagenic call (Test System: AMES SALMONELLA TYPHIMURIUM, Strain/Indicator: TA97, Metabolic Activation: RAT, LIVER, S-9, AROCLOR 1254, Method: STANDARD PLATE) was “inactive; negative” and the mutagenic call (Test System: AMES SALMONELLA TYPHIMURIUM, Strain/Indicator: TA97A, Metabolic Activation: NONE, Method: STANDARD PLATE) was “inactive; negative”. The mutagenic call (Test System: AMES SALMONELLA TYPHIMURIUM, Strain/Indicator: TA97A, Metabolic Activation: RAT LIVER S-9, PHENOBARBITOL/BETA-NAPHTHOFLAVONE, Method: STANDARD PLATE) was “inactive; negative”, the mutagenic call (Test System: AMES SALMONELLA TYPHIMURIUM, Strain/Indicator: TA98, Metabolic Activation: NONE, Method: STANDARD PLATE) was “inactive; negative” and the mutagenic call (Test System: AMES SALMONELLA TYPHIMURIUM, Strain/Indicator: TA98, Metabolic Activation: RAT LIVER S-9, PHENOBARBITOL/BETA-NAPHTHOFLAVONE, Method: STANDARD PLATE) was “inactive; negative”. The mutagenic call (Test System: AMES SALMONELLA TYPHIMURIUM, Strain/Indicator: TA98, Metabolic Activation: RAT, LIVER, S-9, AROCLOR 1254, Method: STANDARD PLATE) was “inactive; negative”, the mutagenic call (Test System: AMES SALMONELLA TYPHIMURIUM, Strain/Indicator: TA100, Metabolic Activation: NONE, Method: PREINCUBATION) was “inactive; negative” and the mutagenic call (Test System: AMES SALMONELLA TYPHIMURIUM, Strain/Indicator: TA100, Metabolic Activation: NONE, Method: STANDARD PLATE) was “inactive; negative”. The mutagenic call (Test System: AMES SALMONELLA TYPHIMURIUM, Strain/Indicator: TA100, Metabolic Activation: RAT LIVER S-9, PHENOBARBITOL/BETA-NAPHTHOFLAVONE, Method: PREINCUBATION) was “inactive; negative”, the mutagenic call (Test System: AMES SALMONELLA TYPHIMURIUM, Strain/Indicator: TA100, Metabolic Activation: RAT LIVER S-9, PHENOBARBITOL/BETA-NAPHTHOFLAVONE, Method: STANDARD PLATE) was “inactive; negative” and the mutagenic call (Test System: AMES SALMONELLA TYPHIMURIUM, Strain/Indicator: TA100, Metabolic Activation: RAT, LIVER, S-9, AROCLOR 1254, Method: STANDARD PLATE) was “inactive; negative”. The mutagenic call (Test System: AMES SALMONELLA TYPHIMURIUM, Strain/Indicator: TA1535, Metabolic Activation: NONE, Method: STANDARD PLATE) was “inactive; negative”, the mutagenic call (Test System: AMES SALMONELLA TYPHIMURIUM, Strain/Indicator: TA1535, Metabolic Activation: RAT LIVER S-9, PHENOBARBITOL/BETA-NAPHTHOFLAVONE, Method: STANDARD PLATE) was “inactive; negative” and the mutagenic call (Test System: E.COLI, Strain/Indicator: WP2/UVRA, Metabolic Activation: NONE, Method: STANDARD PLATE) was “inactive; negative”. For the same compound, the mutagenic call (Test System: E.COLI, Strain/Indicator: WP2/UVRA, Metabolic Activation: RAT LIVER S-9, PHENOBARBITOL/BETA-NAPHTHOFLAVONE, Method: STANDARD PLATE) was “inactive; negative”.

`CN(CC(N)=O)C(=O)N(CCCl)N=O` was tested, and the mutagenic call (Test System: Mouse lymphoma, Strain/Indicator: L5178Y (tk+/tk-), Metabolic Activation: None, Method: Suspension/plate) was “active; positive” and the mutagenic call (Test System: Mouse lymphoma, Strain/Indicator: L5178Y (tk+/tk-), Metabolic Activation: Rat, Liver, S-9, Aroclor 1254, Method: Suspension/plate) was “active; positive”.

`Cc1ccc(C(C)C)c(O)c1` was tested, and the mutagenic call (End Point: IN VITRO CHROMOSOMAL ABERRATIONS, Test System: SYRIAN HAMSTER EMBRYO (SHE) CELLS, Metabolic Activation: NONE) was “inactive; negative; toxic at 520 um”, the mutagenic call (End Point: IN VITRO CHROMOSOMAL ABERRATIONS, Test System: SYRIAN HAMSTER EMBRYO (SHE) CELLS, Metabolic Activation: RAT, LIVER, S-9) was “active; positive (structural changes)” and the mutagenic call (End Point: In vitro micronucleus, Test System: Human peripheral lymphocytes) was “active; positive”. The mutagenic call (End Point: In vivo chromosomal aberrations, Test System: Bone marrow cells, Species: Rat, Strain/Sex: Sprague-Dawley/Male, Route: Intraperitoneal) was “active; positive (structural and numerical changes)”, the mutagenic call (End Point: In vivo chromosomal aberrations, Test System: Human peripheral lymphocytes) was “active; positive (structural changes)” and the mutagenic call (Test System: AMES SALMONELLA TYPHIMURIUM, Strain/Indicator: TA97, Metabolic Activation: NONE, Method: PREINCUBATION (20 MIN)) was “inactive; negative”. The mutagenic call (Test System: AMES SALMONELLA TYPHIMURIUM, Strain/Indicator: TA97, Metabolic Activation: S-9, Method: PREINCUBATION (20 MIN)) was “inactive; negative”, the mutagenic call (Test System: AMES SALMONELLA TYPHIMURIUM, Strain/Indicator: TA98, Metabolic Activation: NONE, Method: PREINCUBATION (20 MIN)) was “inactive; negative” and the mutagenic call (Test System: AMES SALMONELLA TYPHIMURIUM, Strain/Indicator: TA98, Metabolic Activation: S-9, Method: PREINCUBATION (20 MIN)) was “inactive; negative”. For the same compound, the mutagenic call (Test System: AMES SALMONELLA TYPHIMURIUM, Strain/Indicator: TA100, Metabolic Activation: NONE, Method: PREINCUBATION (20 MIN)) was “inactive; negative” and the mutagenic call (Test System: AMES SALMONELLA TYPHIMURIUM, Strain/Indicator: TA100, Metabolic Activation: S-9, Method: PREINCUBATION (20 MIN)) was “inactive; negative”.

With `C/C=C/C1=CC(=O)[C@]23C[C@H]2C(C)(C)O[C@]3(O)C1=O` the mutagenic call (Test System: AMES SALMONELLA TYPHIMURIUM, Strain/Indicator: TA97, Metabolic Activation: NONE) was “active; positive”, the mutagenic call (Test System: AMES SALMONELLA TYPHIMURIUM, Strain/Indicator: TA98, Metabolic Activation: NONE) was “inactive; negative” and the mutagenic call (Test System: AMES SALMONELLA TYPHIMURIUM, Strain/Indicator: TA100, Metabolic Activation: NONE) was “active; positive”. For the same compound, the mutagenic call (Test System: AMES SALMONELLA TYPHIMURIUM, Strain/Indicator: TA102, Metabolic Activation: NONE) was “active; positive”.
